One test relates to IgE-sensitized BMMCs. The test can be described thus: Degranulation reaction (β-hexosaminidase release rate) of IgE-sensitized BMMCs costimulated with PGE2 and ATP. Format: cell-based, mice. On the procedure: (§1) The degranulation reaction was performed by obtaining a degranulation rate using a β-hexosaminidase release rate as an index. The β-hexosaminidase release rate was measured as in the section (Degranulation Experiment) below.
Setting up of BMMCs was performed according to the method described in Example 2.
Anti-DNP-IgE antibody (clone: SPE-7, manufactured by Sigma-Aldrich, Inc.) was added to the BMMC culture solution so that the concentration reached 50 ng/ml, and the BMMCs were sensitized overnight. To be used in the experiment, the BMMCs were washed with PBS(−) and suspended in Krebs Ringer-HEPES Buffer (NaCl 130 mM, KCl 4.7 mM, NaHCO3 4.0 mM, KH2P4 1.2 mM, Glucose 11.5 mM, HEPES 10 mM, and CaCl2·H2O 1.8 mM) so that the concentration reached 1×10^6 cell/ml.
Then, the BMMCs were each set up into the following 6 groups. Note that the numbers in the parentheses below match the numbers in parentheses in FIG. 6. • (1) A group in which nothing was added to the BMMCs, • (2) a group in which only ATP was added to the BMMCs, • (3) a group in which only PGE2 (1 μM) was added to the BMMCs, • (4) a group in which a mixed solution of ATP and PGE2 (1 μM) was added to the BMMCs at once, • (5) a group in which only DNP-HSA (10 ng/ml) was added to the BMMCs as an antigen, and • (6) a group in which a mixed solution of ATP and DNP-HSA (10 ng/ml) was added to the BMMCs at once.
Each of the 6 groups was stimulated at 37° C. for 5 minutes and rapidly cooled on ice, and then centrifugation was performed to stop the reaction. After collecting the supernatant, precipitated cells were lysed with 0.1% triton X-100. […] 50 mM carbonate buffer (pH 10.0, 100 μL) was added to stop the reaction, and absorbance was measured at 405/655 using an absorbance microplate reader Sunrise (manufactured by Tecan Trading AG). The β-hexosaminidase release rate was obtained from the following formula. β-hexosaminidase release rate=Absorbance of supernatant/(Absorbance of supernatant+absorbance of cell lysis station)×100 (Test Result) […]

Another test deals with PSA model mice. The test can be described thus: Passive systemic anaphylaxis (PSA) in IgE-sensitized mice, body temperature change. Format: in vivo. The following applies: for body temperature decrease-suppressing effect: 10 mg/kg intraperitoneally before tail vein DNP-HSA, vs vehicle group. As for the experimental part: The mice were sensitized by tail vein administration of 10 μg/200 μL IgE (physiological saline) under anesthesia.
Male C57BL/6J mice (7 to 8 or 10 to 11 weeks old, produced by Japan SLC, Inc) were used as the mice.
The DNP-HSA administration was arranged to be performed 24 hours after the preparation of the IgE-sensitized mice.
Moreover, with the rest of the IgE-sensitized mice, a group administered with physiological saline as a control for Compound A (vehicle group) and a group administered with the solvent B as a control for Compound B (vehicle group) were prepared.
PSA model mice were prepared, and anaphylaxis was induced by tail vein administration of 100 ng/200 μL (physiological saline) DNP-HSA to unanesthetized mice 24 hours after the preparation of the IgE-sensitized mice.
Inducing systemic anaphylaxis causes a rapid decrease in the body temperatures of the PSA model mice.
The measurement of the body temperature change was performed by measuring, with BAT-7001H Thermometer (Physitemp Instruments, LLC.), the rectal temperatures every 5 minutes from 0 minutes to 60 minutes after the administration, the 0 minutes being defined as the time of the DNP-HSA administration.

The test system of a further test is BMMCs. The experiment in a line: IL-6, IL-13 and TNF-α release by stimulated BMMCs (ELISA). Type of test: cell-based, mice. The following applies: 10 μM, pretreatment 5 minutes; stimulation 3 hours. On the procedure: BMMCs were washed with a fresh culture solution and subjected to reactions in the presence and absence of a stimulating agent (100 μM ATP, 1 μM PGE2, 100 μM ATP+1 μM PGE2) for 3 hours.
The grouping is as shown below and matches the numbers in parentheses indicated in FIGS. 7 to 9. • (1) A group in which nothing was added to the BMMCs, • (2) a group in which only ATP was added to the BMMCs, • (3) a group in which only PGE2 was added to the BMMCs, and • (4) a group in which a mixed solution of ATP and PGE2 was added to the BMMCs at once.
Cytokines released into the reaction solution (interleukin (IL)-6, IL-13, and TNF-α) were measured using ELISA kits (Invitrogen Corporation).

Test [1] relates to IgE-sensitized bone marrow-derived mast cells (BMMCs). The experiment in a line: Degranulation reaction (β-hexosaminidase release rate) of IgE-sensitized BMMCs costimulated with DNP-HSA and ATP. Type of test: cell-based, mice. The following applies: for β-hexosaminidase release rate compared to the control BMMCs / β-hexosaminidase release rate compared to the control BMMCs (dose dependence): group (4): costimulation with ATP and DNP-HSA (10 ng/ml); for β-hexosaminidase release rate compared to the control BMMCs (dose dependence): preincubation with compound 1, 3, 10 μM. On the procedure:
as §1
Bone marrow was collected from femora of male C57BL/6J mice (7 to 8 weeks old, produced by Japan SLC, Inc). Red blood cells were hemolyzed, and culture was performed in a medium containing 10% fetal bovine serum (FBS), penicillin (100 unit/ml), streptomycin (100 μg/ml), and recombinant mouse IL-3 (10 ng/ml, manufactured by PeproTech, Inc.) for 14 days. Stem cell factor (SCF) (10 ng/ml) was added to the medium from Day 15, and the culture was performed for 35 to 42 days to be used for the experiment. Whether the cells were differentiated into mast cells was confirmed by the degrees the of c-KIT and FcεRI expressions. The confirmation was performed by using FACSCant II (manufactured by BD Biosciences).
Anti-DNP-IgE antibody (clone: SPE-7, manufactured by Sigma-Aldrich, Inc.) was added to the BMMC culture solution so that the concentration reached 50 ng/ml, and the BMMCs were sensitized overnight. To be used in the experiment, the BMMCs were washed with PBS(−) and suspended in Krebs Ringer-HEPES Buffer (NaCl 130 mM, KCl 4.7 mM, NaHCO34.0 mM, KH2P4 1.2 mM, Glucose 11.5 mM, HEPES 10 mM, and CaCl2·H2O 1.8 mM) so that the concentration reached 1×10^6 cell/ml.
Then, the BMMCs were each set up into the following 4 groups. • (1) A group in which nothing was added to the BMMCs, • (2) a group in which only ATP was added to the BMMCs, • (3) a group in which only DNP-HSA (10 ng/ml) was added to the BMMCs as an antigen, and • (4) a group in which a mixed solution of ATP and DNP-HSA (10 ng/ml) was added to the BMMCs at once.
Each of the 4 groups was stimulated at 37° C. for 5 minutes and rapidly cooled on ice, and then centrifugation was performed to stop the reaction. After collecting the supernatant, precipitated cells were lysed with 0.1% triton X-100. The supernatant and the cell lysis solution (50 μL) were mixed with 10 mM 4-Nitrophenyl N-acetyl-p-D-glucosaminide (manufactured by Sigma-Aldrich, Inc.) which was a β-hexosaminidase substrate/50 mM citrate buffer (pH 4.5, 50 μL), and the mixture was incubated at 37° C. for 30 minutes. 50 mM carbonate buffer (pH 10.0, 100 μL) was added to stop the reaction, and absorbance was measured at 405/655 using an absorbance microplate reader Sunrise (manufactured by Tecan Trading AG). The β-hexosaminidase release rate was obtained from the following formula. β-hexosaminidase release rate=Absorbance of supernatant/(Absorbance of supernatant+absorbance of cell lysis station)×100
Note that, in the present Example, the numbers of specimens were all n=3, and the significant differences in the present Example are indicated with “*” or “**” in FIGS. 1 and 2, “*” indicating P<0.05, and “**” P<0.01. In addition, “*” or “**” in FIGS. 1 and 2 each indicate that there was a significant difference as a result of comparison with the control in the same group.

A further test deals with PCA model mice. The test can be described thus: Passive cutaneous anaphylaxis (PCA) in IgE-sensitized mice, Evans blue in the auricle. Format: in vivo. On the procedure:
The mice were sensitized by subcutaneously administering 100 ng/20 μL IgE into the right ears under anesthesia. Only physiological saline was administered into the left ears.
Male C57BL/6J mice (10 to 11 weeks old, produced by Japan SLC, Inc) were used as the mice.
Note that the DNP-HSA administration was performed by tail vein administration and was arranged to be performed 24 hours after the preparation of the IgE-sensitized mice.
Note that the concentration of 65% Kolliphor EL was prepared using ethanol and a small amount of sterile water for injection (or water). In addition, the DNP-HSA administration was arranged to be performed 24 hours after the preparation of the IgE-sensitized mice.
Moreover, with the rest of the IgE-sensitized mice, a group administered with physiological saline as a control for Compound A (vehicle group) and a group administered with the solvent B as a control for Compound B (vehicle group) were prepared. […]
The PCA model mice were euthanized 30 minutes after the DNP-HSA administration, the auricles were collected, and the weights of the auricles were measured. […] Absorbance (620 nm) of the extracted Evans blue and the calibration curve was measured using the absorbance microplate reader Sunrise (Tecan Trading AG), and the concentrations were calculated.

Where [2] appears, read: 10 mg/kg intraperitoneally 30 minutes before DNP-HSA.

Data on 2 compounds can be found in patent US12629379B2, “Pharmaceutical composition for preventing, suppressing, or treating symptom associated with allergic reaction” (Nippon Chemiphar Co., Ltd., priority 2020, dated 2026).

For the compound `O=C1CC(=O)N(c2cccc(-c3noc(=S)[nH]3)c2)c2ccc3ccccc3c2N1.[Na]` [Compound A17, 5-[3-(5-thioxo-4H-[1,2,4]oxadiazol-3-yl)phenyl]-1H-naphtho[1,2-b][1,4]diazepine-2,4(3H,5H)-dione sodium salt], the “β-hexosaminidase release rate compared to the control BMMCs” value in the test on IgE-sensitized BMMCs (group (4): costimulation with ATP (0.1 mM) and PGE2 (1 μM), all concentrations of 1 μM, 3 μM, and 10 μM) was “significantly decreased”; in test [1] (all concentrations of 1 μM, 3 μM, and 10 μM), “significantly decreased”. Besides, the “β-hexosaminidase release rate compared to the control BMMCs (dose dependence)” value with IgE-sensitized BMMCs (group (4): costimulation with ATP (0.1 mM) and PGE2 (1 μM), preincubation with compound 1, 3, 10 μM) is recorded as “decreased in a dose-dependent manner”; in test [1], “decreased in a dose-dependent manner”. For the same compound, the β-hexosaminidase release rate entry in the test on IgE-sensitized BMMCs (groups (1) to (3) not subjected to costimulation with ATP (0.1 mM) and PGE2, compound 1, 3 or 10 μM) is recorded as “lower than 5%”; in test [1] (groups (1) to (3) not subjected to costimulation with ATP and DNP-HSA (10 ng/ml), compound 1, 3 or 10 μM), “lower than 10%”. In the test with PSA model mice (setting [2]), the “persistence of the body temperature decrease-suppressing effect” value was more than 60 min. In addition, in the test with PSA model mice (setting [2]), the “time over which there was a significant difference in the body temperature decrease-suppressing effect” value was “at least 35 minutes”. For the same compound, in the test with PSA model mice, the “body temperature decrease-suppressing effect” value was “significant body temperature decrease-suppressing effect”. Besides, in the test with BMMCs, the “ATP-induced increase in IL-6 release” value is listed as “suppressed”. Moreover, the “ATP-induced increase in IL-13 release” value in the test with BMMCs was “suppressed”. Besides, the “ATP-induced increase in TNF-α release” value in the test on BMMCs was “suppressed”.
Take `O=C1CC(=O)N(c2ccc(NC(=O)c3ccccc3I)cc2)c2ccc3ccccc3c2N1` [Compound B48, 5-[4-(2-iodobenzoylamino)phenyl]-1H-naphtho[1,2-b][1,4]diazepine-2,4(3H,5H)-dione]: the “increase in Evans Blue per auricle weight” value in the test with PCA model mice (10 mg/kg intraperitoneally 1 hour before tail vein DNP-HSA, vs vehicle group) was “significantly suppressed”; in the test on PCA model mice (10 mg/kg orally administered, not shown in the drawing), “significantly suppressed”. The “body temperature decrease-suppressing effect” value with PSA model mice is recorded as “significant body temperature decrease-suppressing effect”. Besides, the “β-hexosaminidase release rate compared to the control BMMCs” value in test [1] (concentrations of 3 μM and 10 μM) is listed as “significantly decreased”. Further, in test [1], the “β-hexosaminidase release rate compared to the control BMMCs (dose dependence)” value is “decreased in a dose-dependent manner”.
